From the NIST ThermoML archive (doi:10.1016/j.tca.2012.03.018)
± gives the expanded uncertainty stated by the source.

Assay: molar enthalpy of vaporization or sublimation
Conditions: Liquid

Work on `CCn1cc[n+](C)c1.O=S(=O)([N-]S(=O)(=O)C(F)(F)F)C(F)(F)F` yielded a molar enthalpy (525 K) of 26.4 ± 0.717 kcal/mol.

Compound `CCCCOC(=O)c1ccccc1C(=O)OCCCC` [dibutyl phthalate] has a molar enthalpy (393 K) of 20.1 ± 0.382 kcal/mol.

Work on `CCCCCCCCCCCCCCCCCC(=O)OCC` [ethyl octadecanoate] yielded a molar enthalpy (373 K) of 22 ± 0.335 kcal/mol and a molar enthalpy (383.5 K, Transpiration) of 22.3 ± 0.335 kcal/mol.

For `CCCCCCCCCCCCCCCC` [hexadecane], the molar enthalpy (333.5 K, Transpiration) was 17.9 ± 0.191 kcal/mol and the molar enthalpy (353 K) was 17.8 ± 0.382 kcal/mol.

In the case of `CCCCCCCCCCCCCCCCCC(=O)OC` [methyl octadecanoate], the molar enthalpy (353 K) is reported as 21.6 ± 0.239 kcal/mol.
